For one data set, the system named is MCF-7. The experiment in a line: Cell viability assay (CellTiter-Glo). The format is cell-based. Conditions: Homo sapiens, MCF7, 120 h; MCF-7 (breast), day 5; read-out: Cell viability assay EC50. A general note: Cellular ATP, detected with luciferase, serves as a proxy for viable cell number.
In the next data set the test system is ZR-75-1. The experiment in a line: Cell viability assay (CellTiter-Glo). The format is cell-based.
In the next data set the target is GRK6 (Homo sapiens, UniProt P43250). The experiment in a line: SelectScreen Z'LYTE kinase profiling. It counts as biochemical. As to conditions: ATP at apparent KM.
Chain of GRK6 (P43250 whole entry): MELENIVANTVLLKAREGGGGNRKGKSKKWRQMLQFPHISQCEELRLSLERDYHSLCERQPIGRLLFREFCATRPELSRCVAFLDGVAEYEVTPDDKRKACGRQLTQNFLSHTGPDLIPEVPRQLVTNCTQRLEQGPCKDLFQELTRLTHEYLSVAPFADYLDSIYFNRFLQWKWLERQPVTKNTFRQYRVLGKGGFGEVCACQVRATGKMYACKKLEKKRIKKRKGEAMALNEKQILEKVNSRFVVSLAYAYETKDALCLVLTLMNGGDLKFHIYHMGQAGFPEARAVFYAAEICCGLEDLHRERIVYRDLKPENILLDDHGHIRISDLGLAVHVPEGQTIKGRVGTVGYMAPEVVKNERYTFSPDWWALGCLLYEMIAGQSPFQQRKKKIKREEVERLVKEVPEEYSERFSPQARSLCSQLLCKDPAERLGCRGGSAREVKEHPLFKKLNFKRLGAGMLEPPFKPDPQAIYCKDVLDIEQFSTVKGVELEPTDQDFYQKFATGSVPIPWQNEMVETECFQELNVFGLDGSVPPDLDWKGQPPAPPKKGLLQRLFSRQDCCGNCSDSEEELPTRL
A further data set has as its system AN3CA. The experiment in a line: Cell viability assay (CellTiter-Glo). It counts as cell-based. As to conditions: Homo sapiens, AN3-CA, 120 h; AN3CA (endometrium), day 5; read-out: Cell viability assay EC50.
The next data set deals with AKT3 (PKB gamma) (Homo sapiens, UniProt Q9Y243). The experiment in a line: SelectScreen Z'LYTE kinase profiling. The format is biochemical. As to conditions: ATP at apparent KM.
Chain of AKT3 (PKB gamma) (Q9Y243 whole entry): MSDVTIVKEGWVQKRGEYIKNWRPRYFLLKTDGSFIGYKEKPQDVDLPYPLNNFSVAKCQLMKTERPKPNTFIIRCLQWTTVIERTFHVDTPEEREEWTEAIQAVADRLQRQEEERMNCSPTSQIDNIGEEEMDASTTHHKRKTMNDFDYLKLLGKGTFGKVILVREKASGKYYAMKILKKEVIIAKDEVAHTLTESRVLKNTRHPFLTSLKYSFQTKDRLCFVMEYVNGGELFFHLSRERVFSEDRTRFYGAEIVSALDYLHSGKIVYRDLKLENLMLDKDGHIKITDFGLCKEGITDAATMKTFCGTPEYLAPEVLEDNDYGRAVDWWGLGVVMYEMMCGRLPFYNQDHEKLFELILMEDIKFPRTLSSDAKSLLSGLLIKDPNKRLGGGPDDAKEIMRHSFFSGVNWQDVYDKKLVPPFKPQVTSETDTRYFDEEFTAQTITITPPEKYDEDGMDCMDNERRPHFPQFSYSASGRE
For data set [1] the following is noted: human, 3 µM.
Procedure: For this purpose, we used a microsomal stability assay that is a good predictor for phase I metabolic stability.[50]
Phase I metabolic stability assay
Metabolic stability under oxidative conditions was determined by LCMS-based measuring of
degradation of compounds at 3 µM in human and murine liver microsomes over 60 minutes at 37 °C
Calculating the compound half-life t1/2, the in vitro intrinsic clearance CLint is
Another data set concerns the target AKT1 (PKB alpha) (Homo sapiens, UniProt P31749). The experiment in a line: SelectScreen Z'LYTE kinase profiling. It counts as biochemical. Conditions: ATP at apparent KM.
Data set [2] has as its target T1, full-length Akt (Akt^wt) (Homo sapiens, UniProt P31749). The experiment in a line: HTRF KinEASE activity-based assay, IC50 determination. The format is biochemical.
Procedure: (§1) The biochemical inhibitory activity (IC50) was determined with the HTRF KinEASE assay from Cisbio as
(§2) previously described.1 All reagents for HTRF experiments were purchased from Cisbio Bioassays,
(§3) France. The measurements were analyzed using the Quattro Software Suite for IC50-determination.
(§4) Time-dependent IC50-measurements were performed as described. Briefly, IC50 values were
(§5) determined for twelve different incubation times and afterwards plotted versus accordingly. Data was
(§6) analyzed according to literature procedure.2
Another data set relates to BT-474. The experiment in a line: Cell viability assay (CellTiter-Glo). The format is cell-based. Conditions: Homo sapiens, 120 h; BT-474 (breast), day 5; read-out: Cell viability assay EC50.
The next data set has as its system T47D. The experiment in a line: Cell viability assay (CellTiter-Glo). The format is cell-based. Conditions: Homo sapiens, 120 h; T47D (breast), day 5; read-out: Cell viability assay EC50.
A further data set has as its system KU-19-19. The experiment in a line: Cell viability assay (CellTiter-Glo). It counts as cell-based. Conditions: Homo sapiens, 120 h; KU-19-19 (bladder), day 5; read-out: Cell viability assay EC50.
Data set [3] concerns the target T1, full-length Akt (Akt^wt). The experiment in a line: Kinetic characterization by time-dependent IC50 measurements. The format is biochemical. Conditions: from time-dependent IC50.
Procedure: as §1, §2, §3, §4, §5, §6
A further data set addresses T2, Akt1 (Homo sapiens, UniProt P31749).
T2 construct: Purified full-length wtAkt1 was incubated with a 2-fold molar excess
The experiment in a line: Intact protein mass spectrometry, covalent labeling. It counts as binding. As to conditions: 10 µM protein, 100 µM inhibitor, 1 h, denaturing conditions.

T1 sequence (P31749 whole entry): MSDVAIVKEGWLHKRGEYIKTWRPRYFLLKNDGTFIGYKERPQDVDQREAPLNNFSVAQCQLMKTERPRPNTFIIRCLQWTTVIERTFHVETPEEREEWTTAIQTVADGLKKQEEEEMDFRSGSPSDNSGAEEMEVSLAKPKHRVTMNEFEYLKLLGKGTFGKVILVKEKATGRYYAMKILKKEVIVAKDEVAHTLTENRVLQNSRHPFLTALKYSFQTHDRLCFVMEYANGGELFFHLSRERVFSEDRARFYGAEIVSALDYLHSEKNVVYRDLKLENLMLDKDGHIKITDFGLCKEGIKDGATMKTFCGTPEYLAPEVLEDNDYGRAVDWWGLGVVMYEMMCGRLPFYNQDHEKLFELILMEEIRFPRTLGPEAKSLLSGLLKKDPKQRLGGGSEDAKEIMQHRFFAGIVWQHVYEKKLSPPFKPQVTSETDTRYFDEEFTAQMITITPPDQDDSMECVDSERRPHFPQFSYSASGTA
Chain of AKT1 (PKB alpha) (P31749 whole entry): as above
T2 sequence (P31749 whole entry): as above
Procedure for AKT1 (PKB alpha): (§7) protein kinases at a compound concentration of 1 µM. Measurements were performed in duplicates
(§8) and at the particular apparent ATP KM of each individual kinase employing the activity based Z’LYTE®
(§9) kinase assay of the SelectScreen® Kinase Profiling Services (ThermoFisher Scientific).
(§10) kinases at a compound concentration of 1 µM. Measurements were performed in duplicates and at
(§11) the particular apparent ATP KM of each individual kinase employing the activity based Z’LYTE® kinase
(§12) assay of the SelectScreen® Kinase Profiling Services (ThermoFisher Scientific).
Procedure for AKT3 (PKB gamma): as §7, §8, §9, §10, §11, §12
Procedure for AN3CA: Cell Culture and Viability Assay
(§13) analysis, cells were plated on day 0 into white 384-well cell culture plates (Greiner Bio-One) using a
(§14) Multidrop reagent dispenser (Thermo) at cell numbers that ensure linear and optimal luminescent
(§15) signal intensity (AN3-CA: 800 cells/well; BT-474: 400 cells/well; Dan-G: 400 cells/well; HPAF-II: 400
(§16) cells/well). Then the cells were incubated for 24 h in a humidified atmosphere at 37 °C/5 % CO2. The
(§17) cells were treated with inhibitors in serial dilutions ranging from 30 µM down to 0.1 nM using an Echo
(§18) 520 acoustic liquid handler (Labcyte Inc.). Cell viability was analysed on day 5 using the CellTiter-Glo
(§19) assay (Promega) as per manufacturer’s instructions. Luminescence signal was recorded by an EnVision
(§20) Multilabel 2104 Plate Reader (PerkinElmer) with 500 ms integration time. All data were normalized to
(§21) the plate positive control (30 µM staurosporine) and negative control (DMSO). Finally, the data was
(§22) processed with the Quattro Software Suite using a four parameter logistic model. As a quality control,
(§23) the Z’-factor was calculated from 16 positive and negative control values. Only assay results showing
(§24) a Z’-factor ≥ 0.5 were used for further analysis. All experimental points were measured in duplicates
(§25) for each plate and were replicated in at least three times.
Procedure for BT-474: Cell Culture and Viability Assay
as §13, §14, §15, §16, §17, §18, §19, §20, §21, §22, §23, §24, §25
Procedure for GRK6: as §7, §8, §9, §10, §11, §12
Procedure for KU-19-19: Cell Culture and Viability Assay
as §13, §14, §15, §16, §17, §18, §19, §20, §21, §22, §23, §24, §25
Procedure for MCF-7: Cell Culture and Viability Assay
as §13, §14, §15, §16, §17, §18, §19, §20, §21, §22, §23, §24, §25
Procedure for T47D: Cell Culture and Viability Assay
as §13, §14, §15, §16, §17, §18, §19, §20, §21, §22, §23, §24, §25
Procedure for ZR-75-1: Cell Culture and Viability Assay
as §13, §14, §15, §16, §17, §18, §19, §20, §21, §22, §23, §24, §25

One may read the EC50 as the midpoint of the concentration-response curve. The inhibition is the relative decrease from the control value, in per cent. In general, IC50 refers to the concentration that inhibits the measured activity by half. Read a high IC50 as weaker potency in that assay. The term kinact denotes the rate constant of inactivation at saturating inhibitor. By kinact/KI is commonly meant the second-order rate constant of inactivation. Take `C=CC(=O)Nc1ccc2c(c1)n(C1CCN(Cc3ccc(-c4nc5cc[nH]c(=O)c5cc4-c4ccccc4)cc3)CC1)c(=O)n2C` [24b]: the EC50 came out at 32 ± 8 nM in the data set on MCF-7; 2 nM in the data set on ZR-75-1 (Homo sapiens, 120 h, ZR-75-1 (breast), day 5, read-out: Cell viability assay EC50); 230 ± 75 nM in the data set with AN3CA; 109 ± 16 nM in the data set on BT-474; 11 ± 2 nM with T47D; 7.16 ± 2.11 µM in the data set with KU-19-19. Besides, the “fold higher inhibitory activity than borussertib” value in the data set with ZR-75-1 (ZR-75-1 EC50) was determined as 2 fold. For the same molecule, the inhibition at 1 µM worked out at 0% at GRK6, 75% at AKT3 (PKB gamma) and 98% at AKT1 (PKB alpha). For the same molecule, the “fold lower stability in microsomes” value in [1] is on record as 4 fold. Further, the “fold loss in inhibitory activity (IC50) compared to 1” value at full-length Akt (Akt^wt) [2] is given as 3 fold. The IC50 at full-length Akt (Akt^wt) [2] (HTRF KinEASE) came out at 3 ± 0.3 nM. For the same molecule, the Ki on full-length Akt (Akt^wt) [3] turned out to be 10.7 ± 0.5 nM. Also, the kinact on full-length Akt (Akt^wt) [3] was 0.00202 s⁻¹. At full-length Akt (Akt^wt) [3], the kinact/KI came out at 190000 ± 25000 M⁻¹ s⁻¹. In addition, at Akt1, the “labeling of Akt1 by mass spectrometry” value was “complete labeling”.

On to `C=CC(=O)Nc1cccc(C(=O)NC2CCN(Cc3ccc(-c4nc5cc[nH]c(=O)c5cc4-c4ccccc4)cc3)CC2)c1` [30b], for which the inhibition at 1 µM at GRK6 worked out at 3%.

The values above are taken from article PMC6430017, “Structural and chemical insights into the covalent-allosteric inhibition of the protein kinase Akt” (Chemical Science, 2019).
